Among the data in patent US7968557B2, “Substituted pyrrolo[2,3-2]pyrimidines as protein kinase inhibitors” (Novartis AG, priority 2004, dated 2011) are IC50 values, retold here.

Where two headings read alike, the source gives them in different places.

Holding throughout (type): cell-based
The target in one assay is T1, BCR-Abl (Homo sapiens, UniProt P00519).
T1 construct: expressed in transfected cells; host or cells: murine 32D hemopoietic progenitor cells (32D-p210); the other entry of the earlier key: BCR (P11274, Breakpoint cluster region protein)
T1 sequence (P00519 229-512 limits assumed): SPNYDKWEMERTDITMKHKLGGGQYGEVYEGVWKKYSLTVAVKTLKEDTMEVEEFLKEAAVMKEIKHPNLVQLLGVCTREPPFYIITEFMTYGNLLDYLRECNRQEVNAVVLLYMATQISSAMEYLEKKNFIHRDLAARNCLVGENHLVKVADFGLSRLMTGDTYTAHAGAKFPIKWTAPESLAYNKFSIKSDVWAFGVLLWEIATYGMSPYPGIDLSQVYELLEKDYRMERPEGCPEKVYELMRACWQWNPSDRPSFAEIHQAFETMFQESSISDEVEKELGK
Put plainly: Inhibition of cellular BCR-Abl dependent proliferation (32D-p210 cells). The procedure:
Inhibition of Cellular BCR-Abl Dependent Proliferation (High Throughput Method)
The murine cell line used is the 32D hemopoietic progenitor cell line transformed with BCR-Abl cDNA (32D-p210). These cells are maintained in RPMI/10% fetal calf serum (RPMI/FCS) supplemented with penicillin 50 μg/mL, streptomycin 50 μg/mL and L-glutamine […]. Untransformed 32D cells are similarly maintained with the addition of 15% WEHI conditioned medium as a source of IL3.
50 μl of a 32D or 32D-p210 cells suspension are plated in Greiner 384 well microplates (black) at a density of 5000 cells per well. 50 nl of test compound (1 mM in DMSO stock solution) is added to each well (ST1571 is included as a positive control). The cells are incubated for 72 hours at 37° C., 5% CO2. 10 μl of a 60% Alamar Blue solution (Tek diagnostics) is added to each well and the cells are incubated for an additional 24 hours. The fluorescence intensity (Excitation at 530 nm, Emission at 580 nm) is quantified using the Acquest™ system (Molecular Devices).
Inhibition of Cellular BCR-Abl Dependent Proliferation
32D-p210 cells are plated into 96 well TC plates at a density of 15,000 cells per well. 50 μL of two fold serial dilutions of the test compound (Cmax is 40 μM) are added to each well (ST1571 is included as a positive control). […]

The target of another assay is FGFR3 (Homo sapiens, UniProt P22607). Put plainly: IC50 for FGFR3 (method not described).
The next assay deals with T2, FLT3-ITD (Homo sapiens, UniProt P36888, DUP592-605).
T2 construct: expressed in transfected cells; host or cells: murine Ba/F3 cells, retroviral infection
T2 sequence (P36888 with tags, fused parts or gaps DUP592-605): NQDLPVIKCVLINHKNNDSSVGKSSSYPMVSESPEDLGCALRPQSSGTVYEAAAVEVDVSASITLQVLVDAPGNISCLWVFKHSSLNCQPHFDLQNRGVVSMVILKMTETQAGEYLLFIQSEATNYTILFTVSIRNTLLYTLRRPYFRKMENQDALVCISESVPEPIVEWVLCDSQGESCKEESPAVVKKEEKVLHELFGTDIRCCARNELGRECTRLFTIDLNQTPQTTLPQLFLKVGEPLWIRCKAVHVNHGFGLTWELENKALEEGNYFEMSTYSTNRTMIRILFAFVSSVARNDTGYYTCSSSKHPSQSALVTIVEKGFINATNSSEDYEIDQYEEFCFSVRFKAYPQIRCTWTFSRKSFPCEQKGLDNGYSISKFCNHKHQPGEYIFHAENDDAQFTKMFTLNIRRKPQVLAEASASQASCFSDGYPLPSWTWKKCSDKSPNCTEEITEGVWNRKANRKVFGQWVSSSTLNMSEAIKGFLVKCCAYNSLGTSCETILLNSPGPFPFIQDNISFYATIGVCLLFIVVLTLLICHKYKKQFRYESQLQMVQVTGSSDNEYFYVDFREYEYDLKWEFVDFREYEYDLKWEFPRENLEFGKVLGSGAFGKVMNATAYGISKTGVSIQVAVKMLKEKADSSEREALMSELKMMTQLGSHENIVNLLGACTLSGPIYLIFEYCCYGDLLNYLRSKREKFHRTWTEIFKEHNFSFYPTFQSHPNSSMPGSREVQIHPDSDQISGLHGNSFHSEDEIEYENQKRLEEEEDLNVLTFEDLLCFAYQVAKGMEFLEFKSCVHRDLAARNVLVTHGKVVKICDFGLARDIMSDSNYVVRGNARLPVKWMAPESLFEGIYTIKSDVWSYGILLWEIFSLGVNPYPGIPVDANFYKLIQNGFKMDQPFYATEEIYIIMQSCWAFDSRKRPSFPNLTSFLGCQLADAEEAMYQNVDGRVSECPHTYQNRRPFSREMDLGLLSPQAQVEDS
Put plainly: Flt-3 inhibition, proliferation of Ba/F3-Flt3-ITD cells. An excerpt:
Compounds that have differential activity (more than or equal to 10 fold difference in sensitivity between Flt3+cell lines and Flt3− cell lines are selected for further study.
The cell lines used for the initial screening are sub-lines of Ba/F3 cells that are engineered to over-express mutant or wild-type (non-mutated) Flt3 following infection with a retrovirus expressing appropriate Flt3 cDNAs. The parent cell line, Ba/F3 is dependent on interleukin-3 for proliferation, and when deprived of IL-3, the cells rapidly cease proliferation and die. The retrovirus expresses Flt3 from the retrovirual LTR and the neo gene from an IRES site. Ba/F3 cells are selected in G418 and analyzed for expression of Flt3 by fluorescence activated cell sorting (FACS). Cell lines with two different Flt3 mutations are used. One mutant expresses a Flt-3 that has a 14 amino acid duplication in the juxtamembrane domain encoded by exon 11, the specific duplication being . . . VDFREYEYDLKWEF . . . […]
Yo-Pro-1 iodide (Molecular Probes) is added to the cells at a final concentration of 2.5 μM in NaCl/Na-citrate buffer. The cells are incubated with Yo-Pro for 10 minutes at room temperature and then read on a fluorimeter for determination of cytotoxicity. Next, the cells are lysed with NP40/EDTA/EGTA buffer, incubated at room temperature for 90 minutes and read for the determination of proliferation. […]

Another assay has as its target JAK2 (Homo sapiens, UniProt O60674). Put plainly: IC50 for JAK2 (method not described).
A further assay concerns the target T3, PDGFR-beta (Homo sapiens, UniProt P09619).
T3 construct: expressed in transfected cells; host or cells: BaF3
Put plainly: IC50 for BaF3/PDGFR-beta (method not described).

The target in another assay is Tel-TRKC (Homo sapiens, UniProt Q16288). Put plainly: IC50 for Tel-TRKC (method not described).
Chain of Tel-TRKC (Q16288 530-839): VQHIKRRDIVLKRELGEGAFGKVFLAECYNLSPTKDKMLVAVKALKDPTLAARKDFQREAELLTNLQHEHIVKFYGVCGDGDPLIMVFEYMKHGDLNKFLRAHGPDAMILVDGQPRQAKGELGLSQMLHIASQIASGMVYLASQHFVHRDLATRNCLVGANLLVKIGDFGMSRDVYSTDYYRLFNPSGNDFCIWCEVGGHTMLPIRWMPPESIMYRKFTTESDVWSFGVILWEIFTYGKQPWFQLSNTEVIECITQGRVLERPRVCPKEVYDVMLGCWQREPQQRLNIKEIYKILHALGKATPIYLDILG
Chain of Tel-TRKC (P41212 1-336 partner): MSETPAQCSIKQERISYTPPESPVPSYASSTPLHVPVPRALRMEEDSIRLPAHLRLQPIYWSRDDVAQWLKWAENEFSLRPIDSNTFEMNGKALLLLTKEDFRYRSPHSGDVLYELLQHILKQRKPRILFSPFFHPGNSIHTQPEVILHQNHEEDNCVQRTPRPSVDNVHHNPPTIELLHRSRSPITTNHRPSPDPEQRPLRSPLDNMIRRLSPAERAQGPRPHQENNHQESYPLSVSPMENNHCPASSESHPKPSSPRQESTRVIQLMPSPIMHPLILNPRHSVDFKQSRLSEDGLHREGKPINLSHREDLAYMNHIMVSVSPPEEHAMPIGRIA

Chain of FGFR3 (P22607 23-806, species assumed): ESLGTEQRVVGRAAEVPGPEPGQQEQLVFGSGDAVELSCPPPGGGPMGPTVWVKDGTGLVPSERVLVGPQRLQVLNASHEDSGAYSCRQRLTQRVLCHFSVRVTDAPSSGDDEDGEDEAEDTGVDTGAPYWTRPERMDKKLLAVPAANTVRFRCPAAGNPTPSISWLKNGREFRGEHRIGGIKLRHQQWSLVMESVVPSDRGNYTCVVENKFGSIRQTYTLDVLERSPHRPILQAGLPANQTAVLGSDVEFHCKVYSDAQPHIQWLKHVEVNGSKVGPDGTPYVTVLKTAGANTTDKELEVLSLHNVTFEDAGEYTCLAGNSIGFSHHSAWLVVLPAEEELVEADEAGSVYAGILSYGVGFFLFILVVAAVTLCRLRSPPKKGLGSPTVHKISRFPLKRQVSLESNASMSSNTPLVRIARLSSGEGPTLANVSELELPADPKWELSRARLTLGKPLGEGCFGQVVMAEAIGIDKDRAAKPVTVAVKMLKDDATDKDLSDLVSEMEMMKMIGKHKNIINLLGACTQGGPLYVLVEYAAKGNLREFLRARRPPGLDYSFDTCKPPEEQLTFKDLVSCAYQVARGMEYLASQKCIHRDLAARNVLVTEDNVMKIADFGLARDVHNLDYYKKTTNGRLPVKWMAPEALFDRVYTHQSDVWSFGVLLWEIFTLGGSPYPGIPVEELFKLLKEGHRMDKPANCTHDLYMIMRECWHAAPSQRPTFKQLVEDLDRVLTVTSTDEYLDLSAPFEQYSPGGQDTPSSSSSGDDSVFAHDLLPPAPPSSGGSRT
T3 sequence (P09619 33-1106, species assumed): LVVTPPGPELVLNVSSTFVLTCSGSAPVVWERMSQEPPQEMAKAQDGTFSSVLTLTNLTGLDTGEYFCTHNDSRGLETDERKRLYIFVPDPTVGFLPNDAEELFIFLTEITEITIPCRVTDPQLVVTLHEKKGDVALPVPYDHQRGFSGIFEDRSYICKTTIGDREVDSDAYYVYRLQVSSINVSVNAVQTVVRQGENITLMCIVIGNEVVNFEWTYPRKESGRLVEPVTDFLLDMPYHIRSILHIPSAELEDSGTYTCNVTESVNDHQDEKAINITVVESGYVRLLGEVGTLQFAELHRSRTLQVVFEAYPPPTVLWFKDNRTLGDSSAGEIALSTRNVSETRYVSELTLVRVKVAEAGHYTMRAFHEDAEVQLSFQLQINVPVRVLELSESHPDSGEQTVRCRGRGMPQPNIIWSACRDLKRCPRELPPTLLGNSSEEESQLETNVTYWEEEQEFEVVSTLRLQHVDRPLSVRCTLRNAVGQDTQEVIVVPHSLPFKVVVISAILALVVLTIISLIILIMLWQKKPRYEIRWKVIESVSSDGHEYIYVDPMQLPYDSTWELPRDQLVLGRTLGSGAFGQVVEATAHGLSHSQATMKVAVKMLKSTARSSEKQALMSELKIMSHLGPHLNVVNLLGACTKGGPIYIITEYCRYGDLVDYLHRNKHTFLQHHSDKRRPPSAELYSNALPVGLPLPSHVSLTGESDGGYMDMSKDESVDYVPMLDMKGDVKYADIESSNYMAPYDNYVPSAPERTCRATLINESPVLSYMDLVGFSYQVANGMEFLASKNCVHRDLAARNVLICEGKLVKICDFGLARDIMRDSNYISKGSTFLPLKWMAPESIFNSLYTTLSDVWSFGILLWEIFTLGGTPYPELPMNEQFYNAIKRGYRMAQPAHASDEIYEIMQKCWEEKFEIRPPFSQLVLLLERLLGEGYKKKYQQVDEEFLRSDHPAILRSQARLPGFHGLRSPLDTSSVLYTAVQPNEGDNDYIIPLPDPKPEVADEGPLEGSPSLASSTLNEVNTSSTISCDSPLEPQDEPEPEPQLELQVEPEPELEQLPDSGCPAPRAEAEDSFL
Chain of JAK2 (O60674 whole entry, species assumed): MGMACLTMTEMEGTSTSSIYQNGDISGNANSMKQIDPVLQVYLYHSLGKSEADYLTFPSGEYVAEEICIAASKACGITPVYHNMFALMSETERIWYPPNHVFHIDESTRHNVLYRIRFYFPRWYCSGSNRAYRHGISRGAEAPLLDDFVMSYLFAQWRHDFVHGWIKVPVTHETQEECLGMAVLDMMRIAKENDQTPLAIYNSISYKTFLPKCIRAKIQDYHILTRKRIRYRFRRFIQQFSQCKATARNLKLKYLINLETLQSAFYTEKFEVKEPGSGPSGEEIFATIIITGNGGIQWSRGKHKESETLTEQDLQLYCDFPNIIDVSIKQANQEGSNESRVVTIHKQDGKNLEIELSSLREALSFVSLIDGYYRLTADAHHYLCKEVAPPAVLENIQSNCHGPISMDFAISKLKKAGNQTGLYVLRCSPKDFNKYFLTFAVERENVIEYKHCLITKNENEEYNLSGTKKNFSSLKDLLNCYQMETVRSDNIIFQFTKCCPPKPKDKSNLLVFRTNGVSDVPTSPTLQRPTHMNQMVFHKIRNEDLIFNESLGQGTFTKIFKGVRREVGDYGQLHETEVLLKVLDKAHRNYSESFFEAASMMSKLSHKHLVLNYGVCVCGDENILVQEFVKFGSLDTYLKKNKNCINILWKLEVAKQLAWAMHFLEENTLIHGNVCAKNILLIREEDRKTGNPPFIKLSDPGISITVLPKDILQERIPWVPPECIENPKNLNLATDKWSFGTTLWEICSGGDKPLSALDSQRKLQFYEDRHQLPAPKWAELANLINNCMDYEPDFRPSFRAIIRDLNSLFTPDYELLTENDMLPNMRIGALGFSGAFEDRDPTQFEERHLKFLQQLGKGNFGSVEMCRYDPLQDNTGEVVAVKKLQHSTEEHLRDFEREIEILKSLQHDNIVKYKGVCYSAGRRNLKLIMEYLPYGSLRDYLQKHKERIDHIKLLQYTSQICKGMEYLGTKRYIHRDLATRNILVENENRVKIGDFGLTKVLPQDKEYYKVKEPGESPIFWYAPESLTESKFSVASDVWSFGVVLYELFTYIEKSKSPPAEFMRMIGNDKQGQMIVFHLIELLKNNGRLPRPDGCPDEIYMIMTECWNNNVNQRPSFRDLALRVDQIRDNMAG

At BCR-Abl, `COc1ccc(Nc2ncc3ccn(-c4ccnc(Cl)c4)c3n2)c(C)c1` [example 47, [7-(2-Chloro-pyridin-4-yl)-7H-pyrrolo[2,3-d]pyrimidin-2-yl]-(4-methoxy-2-methyl-phenyl)-amine] gave an IC50 of 408 nM.

At FGFR3, `COc1cc(Nc2ncc3c(n2)N(c2ccccn2)CC3)cc(OC)c1OC` [example 61, (7-Pyridin-2-yl-6,7-dihydro-5H-pyrrolo[2,3-d]pyrimidin-2-yl)-(3,4,5-trimethoxy-phenyl)-amine] registered an IC50 of 284 nM.

Turning to `COc1cc(Nc2ncc3ccn(-c4cccc(CCC#N)c4)c3n2)cc(OC)c1OC` [example 85, 3-{3-[2-(3,4,5-Trimethoxy-phenylamino)-pyrrolo[2,3-d]pyrimidin-7-yl]-phenyl}-propionitrile], on FLT3-ITD, the IC50 turned out to be 16 nM.

As to `COc1cc(Nc2ncc3ccn(-c4cccc(CC#N)c4)c3n2)cc(OC)c1OC` [example 104, {3-[2-(3,4,5-Trimethoxy-phenylamino)-pyrrolo[2,3-d]pyrimidin-7-yl]-phenyl}-acetonitrile], the IC50 was found to be 282 nM against FGFR3; 342 nM against JAK2; 33 nM on PDGFR-beta (read-out: IC50 for PDGFR-beta); 479 nM at Tel-TRKC; 29 nM against FLT3-ITD.

`COc1cc(Nc2ncc3ccn(-c4cccc(Cc5nnnn5C)c4)c3n2)cc(OC)c1OC` [example 120, {7-[3-(1-Methyl-1H-tetrazol-5-ylmethyl)-phenyl]-7H-pyrrolo[2,3-d]pyrimidin-2-yl}-(3,4,5-trimethoxy-phenyl)-amine]: the IC50 on PDGFR-beta (BaF3/PDGFR-beta, read-out: IC50 for BaF3/PDGFR-beta) was 29 nM.
